Experimental data: US7030135B2, “Inhibitors of 11-β-hydroxy steroid dehydrogenase type 1” (Biovitrum AB, priority 2000, dated 2006)

Legend:
[1] = target: T1, human 11-β-hydroxysteroid dehydrogenase type-1 enzyme (11-β-HSD1) (Homo sapiens, UniProt P28845); assay: 11-β-HSD1 enzyme scintillation proximity assay; type: biochemical; conditions: human 11-β-HSD1 expressed in Pichia pastoris; Ki calculated from IC50 (Cheng-Prusoff)
T1 construct: made in house; host or cells: Pichia pastoris
Text: [1,2(n)-^3H]-cortisone was purchased from Amersham Pharmacia Biotech. Anti-cortisol monoclonal mouse antibody, clone 6D6.7 was obtained from Immunotech and Scintillation proximity assay (SPA) beads coated with monoclonal antimouse antibodies were from Amersham Pharmacia Biotech. NADPH, tetrasodium salt was from Calbiochem and glucose-6-phosphate (G-6-P) was supplied by Sigma The human 11-β-hydroxysteroid dehydrogenase type-1 enzyme (11-β-HSD1) was expressed in Pichia pastoris. 18-β-glycyrhetinic acid (GA) was obtained from Sigma. The serial dilutions of the compounds were performed on a Tecan Genesis RSP 150. […]
The multiplication of plates was done on a WallacQuadra. The amount of the product [^3H]-cortisol, bound to the beads was determined in a Packard, Top Count microplate liquid scintillation counter. […]
The plates were covered with plastic film and incubated on a shaker for 30 minutes, at room temperature, before counting. The amount of [^3H]-cortisol, bound to the beads was determined in a microplate liquid scintillation counter.
The calculation of the Ki values for the inhibitors was performed by use of Activity Base. The Ki value is calculated from IC50 and the Km value is calculated using the Cheng Prushoff equation (with reversible inhibition that follows the Michaelis-Menten equation): […] [Cheng, Y. C.; Prushoff, W. H. Biochem. Pharmacol. 1973, 22, 3099–3108]. […]

bone nodule formation = conditions: cited from earlier work

T1 sequence (P28845 whole entry): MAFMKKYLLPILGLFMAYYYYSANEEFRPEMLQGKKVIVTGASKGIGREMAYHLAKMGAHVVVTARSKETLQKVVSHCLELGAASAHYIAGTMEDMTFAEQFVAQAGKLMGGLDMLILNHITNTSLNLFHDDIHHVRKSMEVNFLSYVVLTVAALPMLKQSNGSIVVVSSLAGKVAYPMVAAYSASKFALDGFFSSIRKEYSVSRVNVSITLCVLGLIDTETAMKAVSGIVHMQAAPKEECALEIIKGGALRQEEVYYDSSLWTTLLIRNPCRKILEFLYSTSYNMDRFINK

SMILES | Ki [1] [nM] | negative glucocorticoid effect on bone nodule formation (bone nodule formation)
Cc1cc(Cl)cc(Cl)c1S(=O)(=O)Nc1nc2c(s1)C(=O)CC(C)(C)C2 [Example 8, 2,4-Dichloro-N-(5,5-dimethyl-7-oxo-4,5,6,7-tetrahydro-1,3-benzothiazol-2-yl)-6-methylbenzenesulfonamide.] | 28 | 
CC1(C)[C@@H](OC(=O)CCC(=O)O)CC[C@]2(C)[C@H]3C(=O)C=C4[C@@H]5C[C@@](C)(C(=O)O)CC[C@]5(C)CC[C@@]4(C)[C@]3(C)CC[C@@H]12 [carbenoxolone] |  | could be blocked
Cc1cc(Br)ccc1S(=O)(=O)Nc1nc2c(s1)C(=O)CC(C)C2 (stereo not drawn) [Example 16, 4-Bromo-2methyl-N-(5methyl-7-oxo-4,5,6,7-tetrahydro-1,3-benzothiazol-2-yl)benzenesulfonamide] | 227 | 
